Values after ≈ are worked out from the molar mass of the structure shown. Read-outs that look alike come from different tables or passages of the source.
Assays:
[1] = tested on: boar spermatozoa; assay: Sperm motility inhibition assay (progressive and rapid motility); format: cell-based
Description: Furthermore, their physiological characters including their motility are influenced mainly by membrane potentials and ion fluxes. Thus, the change of sperm motility is able to sensitively indicate the substances causing mitochondrial membrane depolarization even at sublethal doses, which is undetectable with other cell lines. Motility of the spermatozoa was judged after exposure of 30 min and 24 h at room temperature with minor modification of a previously described method.
The sperm motility inhibition assay was done as reported by Andersson et al.. Commercial boar semen obtained from Figen Oy Finland extended in MR-A (Kubus, S.A., Madrid, Spain) containing 27 × 10^6 spermatozoa·mL^−1 was used. The purified OPA was diluted by serial dilutions in methanol obtaining two ranges of concentrations with 4-4 levels from 2500 μg mL^−1 to 250.0 μg mL^−1 and from 50 μg mL^−1 to 5.0 μg mL^−1, for short and long time exposures, respectively. Twenty μL of each dilution was administered to 2 mL of MR-A-diluted boar semen resulting approximately 100 times dilution of the original stock solutions; 20 μL of methanol was added to spermatozoa in the same way as a blank assay. The samples were incubated for 30 min and 24 h at room temperature for short and long term exposure assays, respectively. After exposure, motility was induced in the sperm cells by incubation in 37 °C for 5 min and shaking to provide the sperm cells with oxygen. […]
The above described subjective motility assay was calibrated with an automatic Hamilton Thorne sperm motility analyzer (HTM-S, ver. 7.2; Hamilton-Thorn Research, Danvers, MA, USA). […] Thus the protocol for assessing sperm tail beating as a measure of motility inhibition gave 99% similarity to measurements of the proportion of rapidly motile spermatozoa done with Hamilton Thorne sperm analyzer (HTM-S, ver. 7.2; Hamilton-Thorn Research, Danvers, MA, USA) Toxicity was expressed as the endpoint concentration of the OPA solution, where the progressive and rapid motility of the sperm cells were <50% of the vehicle exposed sperm cells. […]

[2] = Somatic cell toxicity assay (resazurin reduction), PK-15; format: cell-based, porcine; settings: pig, PK-15 cells (porcine kidney tubular epithelial cell line); read-out: Toxic endpoint EC50, Cytotoxicity, PK-15 cells
Description: (§1) Viability assays, based on resazurin-resorufin transformation, represent excellent correlation to generally used reference assays, such as formazan- and tritiated thymidine based methods. In our experiments, proliferating murine neuroblastoma (MNA), feline fetus lung (FFL) and porcine kidney (PK-15) cells were treated with OPA. […] These values were remarkably less than the concentrations causing sperm toxicity and motility inhibition.
(§2) Cytotoxicity against somatic cells was tested with feline fetus lung cells (FFL) cultivated as described by Andersson et al. and murine neuroblastoma cells (MNA) as described by Kulonen et al. as well as porcine kidney tubular epithelial cell line (PK-15), cultured as reported earlier. All somatic cell lines were maintained in an atmosphere of 95% air, 5% CO2 and 95% relative humidity at 37 °C on RPMI 1640 (complete medium) in a cell culture cabinet (Heracell 150i; Thermo Fisher Scientific, Vantaa, Finland). The detached cells were seeded onto 96 well microtiter plates and exposed to the purified OPA, the final concentration of which ranged from 48.8 ng mL^−1 to 25 μg mL^−1 containing 10 levels in methanol. […] Then, the plates were analyzed by a microtiter plate reader (Fluoroskan Ascent, Thermo Scientific, Vantaa, Finland) at the excitation and emission wavelengths of 544 nm and 590 nm, respectively. […]

[3] = tested on: porcine kidney (PK-15) cells; assay: as above; format: cell-based; settings: Sus scrofa; PK-15 cells, resazurin; read-out: IC50, cell proliferation
Description: as §1, §2

For `CC(C)=C[C@H]1C[C@H](C)[C@]2(CC[C@]3(C)C[C@H]4[C@H](C(=O)C[C@@]4(C)O)/C(C=O)=C\C[C@H]32)O1` [OPA, ophiobolin A], the EC50 ([1]; 0.5 h, boar spermatozoa, 30 min exposure at room temperature, read-out: Toxic endpoint EC50, Motility inhibition (30 min)) was ≤ 2.5 µg/mL, the EC50 ([1]; 24 h, read-out: Toxic endpoint EC50, Motility inhibition (24 h), boar spermatozoa, 24 h exposure at room temperature) was 0.25 µg/mL (≈ 0.624 µM) and the EC50 at 3 days [2] was 0.1 µg/mL (≈ 0.25 µM). The IC50 [3] was 0.0488 to 0.0976 µg/mL (≈ 0.122 to 0.244 µM).
